This passage reports TD50 and carcinogen call results from PubChem BioAssay AID1745844 (Carcinogenic Potency Database (CPDB), 2022).

The test system of this data set is rodent lifetime carcinogenesis bioassay, tumor incidence TD50. Nature of the data set: carcinogenic potency in animals, long-term in vivo studies, CPDB compilation (AID 1745844).

Values joined by “and” are separate entries in the source; they are usually repeats but may differ in a detail not shown here. Equal values may be shown once. Active and inactive are the calls of the source. The rule behind the calls is not given here.

A word on the TD50: it is the 50% point of the dose-response relation for the toxic effect studied. Regarding `ClC1=C(Cl)C2(Cl)C3C(Cl)C(Cl)CC3C1(Cl)C2(Cl)Cl` (stereo not drawn), the TD50 reads like this: (mouse, strain B6C3F1, females, in feed, site: any site (literature study), lesion: several types, types named in the paper, dosed 80 weeks, study length 90 weeks) 5.16 mg/kg/day; (mouse, strain B6C3F1, females, in feed, site: liver, lesion: hepatocellular adenoma + hepatocellular carcinoma + neoplastic nodule, dosed 80 weeks, study length 90 weeks) 4.89 mg/kg/day; (mouse, strain B6C3F1, females, in feed, site: liver, lesion: hepatocellular carcinoma, dosed 80 weeks, study length 89 weeks) 5.28 mg/kg/day; (mouse, strain B6C3F1, females, in feed, site: liver, lesion: hepatocellular carcinoma, dosed 80 weeks, study length 90 weeks) 4.89 mg/kg/day; (mouse, strain B6C3F1, females, in feed, site: lung, lesion: alveolar/bronchiolar adenoma + alveolar/bronchiolar carcinoma, dosed 80 weeks, study length 90 weeks) 228 mg/kg/day; (mouse, strain B6C3F1, males, in feed, site: any site (literature study), lesion: several types, types named in the paper, dosed 80 weeks, study length 90 weeks) 2.31 mg/kg/day. For the same molecule, the TD50 (mouse, strain B6C3F1, males, in feed, site: liver, lesion: hepatocellular adenoma + hepatocellular carcinoma + neoplastic nodule, dosed 80 weeks, study length 90 weeks) was determined as 2.15 mg/kg/day; the TD50 (mouse, strain B6C3F1, males, in feed, site: liver, lesion: hepatocellular adenoma, dosed 60 weeks, study length 61 weeks) is 0.903 mg/kg/day; the TD50 (mouse, strain B6C3F1, males, in feed, site: liver, lesion: hepatocellular adenoma, dosed 60 weeks, study length 72 weeks) was 0.727 mg/kg/day; the TD50 (mouse, strain B6C3F1, males, in feed, site: liver, lesion: hepatocellular adenoma, dosed 72 weeks, study length 72 weeks) is 1.96 mg/kg/day; the TD50 (mouse, strain B6C3F1, males, in feed, site: liver, lesion: hepatocellular carcinoma, dosed 60 weeks, study length 61 weeks) was 1.91 mg/kg/day; the TD50 (mouse, strain B6C3F1, males, in feed, site: liver, lesion: hepatocellular carcinoma, dosed 60 weeks, study length 68 weeks) was 1.49 mg/kg/day. Moreover, the TD50 reads like this: (mouse, strain B6C3F1, males, in feed, site: liver, lesion: hepatocellular carcinoma, dosed 60 weeks, study length 72 weeks) 2.67 mg/kg/day; (mouse, strain B6C3F1, males, in feed, site: liver, lesion: hepatocellular carcinoma, dosed 68 weeks, study length 68 weeks) 0.878 mg/kg/day; (mouse, strain B6C3F1, males, in feed, site: liver, lesion: hepatocellular carcinoma, dosed 72 weeks, study length 72 weeks) 2.96 mg/kg/day; (mouse, strain B6C3F1, males, in feed, site: liver, lesion: hepatocellular carcinoma, dosed 80 weeks, study length 89 weeks) 2.48 mg/kg/day; (mouse, strain B6C3F1, males, in feed, site: liver, lesion: hepatocellular carcinoma, dosed 80 weeks, study length 90 weeks) 2.15 mg/kg/day; (mouse, strain B6C3F1, males, in feed, site: liver, lesion: several types, types named in the paper, dosed 60 weeks, study length 61 weeks) 0.583 mg/kg/day. The TD50 is 1.68 mg/kg/day (mouse, strain B6C3F1, males, in feed, site: liver, lesion: several types, types named in the paper, dosed 72 weeks, study length 72 weeks); 656 mg/kg/day (mouse, strain B6C3F1, males, in feed, site: lung, lesion: alveolar/bronchiolar adenoma + alveolar/bronchiolar carcinoma, dosed 80 weeks, study length 90 weeks); 13.1 mg/kg/day (mouse, strain C57BL/10J, males, in feed, site: liver, lesion: several types, types named in the paper, dosed 104 weeks, study length 104 weeks); 71.8 mg/kg/day (mouse, strain Charles River CD1, females, in feed, site: liver, lesion: hepatoma, dosed 78 weeks, study length 78 weeks); 1.78 mg/kg/day (mouse, strain Charles River CD1, females, in feed, site: liver, lesion: nodular hyperplasia, dosed 78 weeks, study length 78 weeks); 1.45 mg/kg/day (mouse, strain Charles River CD1, males, in feed, site: liver, lesion: nodular hyperplasia, dosed 78 weeks, study length 78 weeks). For the same molecule, the TD50 (mouse, strain D2B6F1 mice, males, in feed, site: liver, lesion: hepatocellular adenoma, dosed 60 weeks, study length 61 weeks) is 2.33 mg/kg/day; the TD50 (mouse, strain D2B6F1 mice, males, in feed, site: liver, lesion: hepatocellular adenoma, dosed 69 weeks, study length 69 weeks) is 1.29 mg/kg/day; the TD50 (mouse, strain D2B6F1 mice, males, in feed, site: liver, lesion: hepatocellular adenoma, dosed 87 weeks, study length 87 weeks) was 4.98 mg/kg/day; the TD50 (mouse, strain D2B6F1 mice, males, in feed, site: liver, lesion: hepatocellular carcinoma, dosed 60 weeks, study length 61 weeks) is 6.09 mg/kg/day; the TD50 (mouse, strain D2B6F1 mice, males, in feed, site: liver, lesion: hepatocellular carcinoma, dosed 69 weeks, study length 69 weeks) was 3.31 mg/kg/day; the TD50 (mouse, strain D2B6F1 mice, males, in feed, site: liver, lesion: hepatocellular carcinoma, dosed 87 weeks, study length 87 weeks) was 5.21 mg/kg/day. Also, the TD50 by setting is: (mouse, strain D2B6F1 mice, males, in feed, site: liver, lesion: several types, types named in the paper, dosed 60 weeks, study length 61 weeks) 1.93 mg/kg/day; (mouse, strain D2B6F1 mice, males, in feed, site: liver, lesion: several types, types named in the paper, dosed 69 weeks, study length 69 weeks) 1.03 mg/kg/day; (mouse, strain D2B6F1 mice, males, in feed, site: liver, lesion: several types, types named in the paper, dosed 87 weeks, study length 87 weeks) 3.83 mg/kg/day; (mouse, strain ICR, females, in feed, site: liver, lesion: hepatocellular adenoma, dosed 106 weeks, study length 106 weeks) 19.3 mg/kg/day; (mouse, strain ICR, females, in feed, site: liver, lesion: hepatocellular carcinoma, dosed 106 weeks, study length 106 weeks) 60 mg/kg/day; (mouse, strain ICR, females, in feed, site: liver, lesion: several types, types named in the paper, dosed 106 weeks, study length 106 weeks) 13.4 mg/kg/day. Also, the TD50 was found to be 4.01 mg/kg/day (mouse, strain ICR, males, in feed, site: all sites, lesion: hemangioma, dosed 106 weeks, study length 106 weeks); 2.98 mg/kg/day (mouse, strain ICR, males, in feed, site: liver, lesion: hepatocellular adenoma, dosed 106 weeks, study length 106 weeks); 7.38 mg/kg/day (mouse, strain ICR, males, in feed, site: liver, lesion: hepatocellular carcinoma, dosed 106 weeks, study length 106 weeks); 1.71 mg/kg/day (mouse, strain ICR, males, in feed, site: liver, lesion: several types, types named in the paper, dosed 106 weeks, study length 106 weeks); 0.32 mg/kg/day (rat, strain Fischer 344, females, in feed, site: mammary gland, lesion: fibroadenoma, dosed 130 weeks, study length 130 weeks); 15.3 mg/kg/day (rat, strain Fischer 344, males, in feed, site: liver, lesion: hepatocellular adenoma, dosed 130 weeks, study length 130 weeks). The TD50 reads like this: (rat, strain Osborne-Mendel, females, in feed, site: any site (literature study), lesion: several types, types named in the paper, dosed 80 weeks, study length 109 weeks) 18.4 mg/kg/day (inactive); (rat, strain Osborne-Mendel, females, in feed, site: liver, lesion: hepatocellular adenoma + hepatocellular carcinoma + neoplastic nodule, dosed 80 weeks, study length 109 weeks) 121 mg/kg/day; (rat, strain Osborne-Mendel, females, in feed, site: uterus, lesion: adenocarcinoma + sarcoma, dosed 80 weeks, study length 109 weeks) 101 mg/kg/day (inactive); (rat, strain Osborne-Mendel, males, in feed, site: all sites, lesion: fibrous histiocytoma, dosed 80 weeks, study length 109 weeks) 42.5 mg/kg/day and 60.4 mg/kg/day (inactive); (rat, strain Osborne-Mendel, males, in feed, site: any site (literature study), lesion: several types, types named in the paper, dosed 80 weeks, study length 109 weeks) 21.6 mg/kg/day; (rat, strain Osborne-Mendel, males, in feed, site: thyroid gland, lesion: follicular-cell adenoma + follicular-cell carcinoma, dosed 80 weeks, study length 109 weeks) 41.6 mg/kg/day (inactive). Besides, the carcinogen call is, setting by setting: (mouse, strain B6C3F1, males, in feed, site: liver, lesion: hepatocellular adenoma, dosed 60 weeks, study length 68 weeks) “positive”; (mouse, strain B6C3F1, males, in feed, site: liver, lesion: hepatocellular adenoma, dosed 68 weeks, study length 68 weeks) “positive”; (mouse, strain B6C3F1, males, in feed, site: liver, lesion: several types, types named in the paper, dosed 60 weeks, study length 68 weeks) “positive”; (mouse, strain B6C3F1, males, in feed, site: liver, lesion: several types, types named in the paper, dosed 68 weeks, study length 68 weeks) “positive”.
With `NC(=O)CCCCC(N)=O`, the carcinogen call reads like this: (mouse, strain C57BL/6, females, in feed, site: liver, lesion: hepatocellular carcinoma, dosed 52 weeks, study length 69 weeks) “negative (inactive)”; (mouse, strain C57BL/6, males, in feed, site: liver, lesion: hepatocellular carcinoma, dosed 52 weeks, study length 69 weeks) “negative (inactive)”; (mouse, strain C57BL/6, males, in feed, site: lung, lesion: alveolar/bronchiolar adenoma, dosed 52 weeks, study length 69 weeks) “negative (inactive)”; (rat, strain Fischer 344, females, in feed, site: liver, lesion: one or several types, types not named, dosed 52 weeks, study length 69 weeks) “negative (inactive)”. The TD50 is, setting by setting: (mouse, strain C57BL/6, females, in feed, site: lung, lesion: alveolar/bronchiolar adenoma, dosed 52 weeks, study length 69 weeks) 8550 mg/kg/day (inactive); (rat, strain Fischer 344, males, in feed, site: liver, lesion: hepatocellular carcinoma, dosed 52 weeks, study length 69 weeks) 6420 mg/kg/day.
As for `O=C(Nc1nc(-c2ccc([N+](=O)[O-])o2)cs1)C(F)(F)F`, the TD50 was 8.01 mg/kg/day (mouse, strain Swiss, females, in feed, site: any site (literature study), lesion: several types, types named in the paper, dosed 46 weeks, study length 55 weeks); 9.98 mg/kg/day (mouse, strain Swiss, females, in feed, site: forestomach, lesion: several types, types named in the paper, dosed 46 weeks, study length 55 weeks); 38.6 mg/kg/day (mouse, strain Swiss, females, in feed, site: forestomach, lesion: squamous-cell carcinoma, dosed 46 weeks, study length 55 weeks); 43.5 mg/kg/day (mouse, strain Swiss, females, in feed, site: forestomach, lesion: squamous-cell papilloma, dosed 46 weeks, study length 55 weeks); 5.58 mg/kg/day (rat, strain Sprague-Dawley, females, in feed, site: any site (literature study), lesion: several types, types named in the paper, dosed 46 weeks, study length 66 weeks); 7.27 mg/kg/day (rat, strain Sprague-Dawley, females, in feed, site: mammary gland, lesion: adenocarcinoma, dosed 46 weeks, study length 66 weeks). For the same molecule, the TD50 (rat, strain Sprague-Dawley, females, in feed, site: mammary gland, lesion: several types, types named in the paper, dosed 46 weeks, study length 66 weeks) is 6.79 mg/kg/day.
On to `C=C(C)C`, for which the carcinogen call was “negative (inactive)” (mouse, strain B6C3F1, females, inhaled, site: any site (literature study), lesion: several types, types named in the paper, dosed 105 weeks, study length 105 weeks) and “negative (inactive)” (rat, strain Fischer 344, females, inhaled, site: any site (literature study), lesion: several types, types named in the paper, dosed 104 weeks, study length 104 weeks). For the same molecule, the TD50 was 47800 mg/kg/day (mouse, strain B6C3F1, females, inhaled, site: liver, lesion: hepatocellular adenoma + hepatoblastoma + hepatocellular carcinoma, dosed 105 weeks, study length 105 weeks); 8840 mg/kg/day (inactive) (mouse, strain B6C3F1, males, inhaled, site: any site (literature study), lesion: several types, types named in the paper, dosed 104 weeks, study length 104 weeks); 30100 mg/kg/day (rat, strain Fischer 344, females, inhaled, site: liver, lesion: hepatocellular adenoma + hepatoblastoma + hepatocellular carcinoma, dosed 104 weeks, study length 104 weeks); 3550 mg/kg/day (rat, strain Fischer 344, males, inhaled, site: thyroid gland, lesion: follicular-cell carcinoma, dosed 104 weeks, study length 104 weeks).
Take `Brc1cc(-c2ccc(Br)c(Br)c2Br)cc(Br)c1Br`: the TD50 (rat, strain Sprague-Dawley Spartan, females, in feed, site: any site (literature study), lesion: several types, types named in the paper, dosed 57 weeks, study length 57 weeks) is 5.91 mg/kg/day (inactive). Also, the carcinogen call (rat, strain Sprague-Dawley Spartan, females, in feed, site: liver, lesion: one or several types, types not named, dosed 57 weeks, study length 57 weeks) is “negative (inactive)”.
